24 compounds from patent US9403808B2, “Pyrazine derivatives” (Hoffmann-La Roche Inc., priority 2011, dated 2016) can be followed below.

Structures are written as SMILES.

Assay [1] addresses human CB1 receptors (Homo sapiens (Human), UniProt P21554). The experiment in a line: functional cAMP assay, CB1. The assay is classed as cell-based. Conditions: functional cAMP assay, CHO cells expressing human CB1; read-out: human CB1 EC50. The method, then:
(§1) CHO cells expressing human CB1 or CB2 receptors are seeded 17-24 hours prior to the experiment 50.000 cells per well in a black 96 well plate with flat clear bottom (Corning Costar #3904) in DMEM (Invitrogen No. 31331), 1×HT supplement, with 10% fetal calf serum and incubated at 5% CO2 and 37° C. in a humidified incubator. The growth medium was exchanged with Krebs Ringer Bicarbonate buffer with 1 mM IBMX and incubated at 30° C. for 30 min. Compounds were added to a final assay volume of 100 μl and incubated for 30 min at 30° C. Using the cAMP-Nano-TRF detection kit the assay (Roche Diagnostics) was stopped by the addition of 50 μl lysis reagent (Tris, NaCl, 1.5% Triton X100, 2.5% NP40, 10% NaN3) and 50 μl detection solutions (20 μM mAb Alexa700-cAMP 1:1, and 48 μM Ruthenium-2-AHA-cAMP) and shaken for 2 h at room temperature. The time-resolved energy transfer is measured by a TRF reader (Evotec Technologies GmbH), equipped with a ND:YAG laser as excitation source. The plate is measured twice with the excitation at 355 nm and at the emission with a delay of 100 ns and a gate of 100 ns, total exposure time 10s at 730 (bandwidth 30 nm) or 645 nm (bandwidth 75 nm), respectively. The FRET signal is calculated as follows: FRET=T730-Alexa730-P(T645-B645) with P=Ru730-B730/Ru645-B645, where T730 is the test well measured at […], T645 is the test well measured at 645 nm, B730 and B645 are the buffer controls at 730 nm and 645 nm, respectively. cAMP content is determined from the function of a standard curve spanning from 10 μM to 0.13 nM cAMP.
(§2) EC50 values were determined using Activity Base analysis (ID Business Solution, Limited). The EC50 values for a wide range of cannabinoid agonists generated from this assay were in agreement with the values published in the scientific literature.
(In general: Cyclic AMP is a second messenger, typically raised through Gs and lowered through Gi signalling.)

In assay [2] the target is human CB2 receptors (Homo sapiens (Human), UniProt P34972). Briefly: functional cAMP assay, CB2. The assay is classed as cell-based. The note with it: functional cAMP assay, CHO cells expressing human CB2; read-out: human CB2 EC50. The method, then:
as §1, §2

human CB1 receptors, sequence (P21554 whole entry): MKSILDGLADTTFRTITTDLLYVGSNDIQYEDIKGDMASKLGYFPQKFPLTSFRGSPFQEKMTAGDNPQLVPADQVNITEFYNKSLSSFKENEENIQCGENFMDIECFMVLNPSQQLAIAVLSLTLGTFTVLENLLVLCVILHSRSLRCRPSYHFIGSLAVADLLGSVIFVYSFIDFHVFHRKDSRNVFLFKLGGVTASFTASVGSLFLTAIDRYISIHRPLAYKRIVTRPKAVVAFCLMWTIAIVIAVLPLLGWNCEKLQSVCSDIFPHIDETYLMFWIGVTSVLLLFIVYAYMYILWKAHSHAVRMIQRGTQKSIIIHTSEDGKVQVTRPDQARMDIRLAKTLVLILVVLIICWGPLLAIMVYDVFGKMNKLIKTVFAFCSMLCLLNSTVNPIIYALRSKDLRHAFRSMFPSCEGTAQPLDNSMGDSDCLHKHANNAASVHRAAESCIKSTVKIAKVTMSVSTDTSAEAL
human CB2 receptors, sequence (P34972 whole entry): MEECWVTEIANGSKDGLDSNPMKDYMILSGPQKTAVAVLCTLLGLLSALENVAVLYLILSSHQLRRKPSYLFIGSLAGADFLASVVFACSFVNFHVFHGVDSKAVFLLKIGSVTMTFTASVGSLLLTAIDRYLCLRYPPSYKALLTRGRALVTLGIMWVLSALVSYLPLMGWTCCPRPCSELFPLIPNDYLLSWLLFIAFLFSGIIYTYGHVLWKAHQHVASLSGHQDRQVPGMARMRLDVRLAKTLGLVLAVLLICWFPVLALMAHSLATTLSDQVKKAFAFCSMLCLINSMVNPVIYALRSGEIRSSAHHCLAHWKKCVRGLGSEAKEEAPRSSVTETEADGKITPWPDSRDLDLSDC

One may read the EC50 as the concentration needed to bring the measured effect to its halfway point. With `Cc1nc([C@@H](C)NC(=O)c2cnc(N3CC(F)(F)C3)c(OCC3CC3)n2)no1` [Example 56, 6-Cyclopropylmethoxy-5-(3,3-difluoro-azetidin-1-yl)-pyrazine-2-carboxylic acid [(R)-1-(5-methyl-[1,2,4]oxadiazol-3-yl)-ethyl]amide], the EC50 is more than 10000 nM in assay [1] and 72.5 nM in assay [2].

As for `COC(=O)[C@H](CC1CC1)NC(=O)c1cnc(C2CC2)c(OCC2CC2)n1` [Example 35, (S)-3-Cyclopropyl-2-[(5-cyclopropyl-6-cyclopropylmethoxy-pyrazine-2-carbonyl)-amino]-propionic acid methyl ester], the values for the EC50 in assay [1] and in assay [2] were more than 10000 nM and 43.3 nM, respectively.

Regarding `CC(C)C[C@H](NC(=O)c1cnc(N2CC(F)(F)C2)c(OCC2CC2)n1)C(=O)N(C)C` [Example 34, 6-Cyclopropylmethoxy-5-(3,3-difluoro-azetidin-1-yl)-pyrazine-2-carboxylic acid ((S)-1-dimethylcarbamoyl-3-methyl-butyl)-amide], the results for the EC50 in assay [1] and in assay [2] were more than 10000 nM and 13.6 nM, respectively.

Turning to `O=C(NC1(CO)CCC1)c1cnc(C2CC2)c(OCC2CC2)n1` [Example 11, 5-Cyclopropyl-6-cyclopropylmethoxy-pyrazine-2-carboxylic acid (1-hydroxymethyl-cyclobutyl)-amide], the EC50 is 3320 nM in assay [1] and 124 nM in assay [2].

As to `CNC(=O)[C@@H](NC(=O)c1cnc(N2CC(F)(F)C2)c(OCC2CC2)n1)C(C)(C)C` [Example 8, 6-Cyclopropylmethoxy-5-(3,3-difluoro-azetidin-1-yl)-pyrazine-2-carboxylic acid ((S)-2,2-dimethyl-1-methylcarbamoyl-propyl)-amide], the results for the EC50 in assay [1] and in assay [2] were more than 10000 nM and 18.5 nM, respectively.

Regarding `NC(=O)[C@H](Cc1ccccc1)NC(=O)c1cnc(C2CC2)c(OCC2CC2)n1` [Example 37, 5-Cyclopropyl-6-cyclopropylmethoxy-pyrazine-2-carboxylic acid ((S)-1-carbamoyl-2-phenyl-ethyl)-amide], the EC50 came out at 1640 nM in assay [1] and 108 nM in assay [2].

Turning to `Cc1nc([C@@](C)(NC(=O)c2cnc(N3CC(F)(F)C3)c(OCC3CC3)n2)C2CC2)no1` [Example 86, (+)-6-Cyclopropylmethoxy-5-(3,3-difluoro-azetidin-1-yl)-pyrazine-2-carboxylic acid [1-cyclopropyl-1-(5-methyl-[1,2,4]oxadiazol-3-yl)-ethyl]-amide], the EC50 in assay [1] is more than 10000 nM; in assay [2] it was 23.7 nM.

Take `CNC(=O)[C@H](CC(C)C)NC(=O)c1cnc(N2CC(F)(F)C2)c(OCC2CC2)n1` [Example 33, 6-Cyclopropylmethoxy-5-(3,3-difluoro-azetidin-1-yl)-pyrazine-2-carboxylic acid ((S)-3-methyl-1-methylcarbamoyl-butyl)-amide]: the EC50 is more than 10000 nM in assay [1] and 11.8 nM in assay [2].

Consider `COC(=O)C(C)(NC(=O)c1cnc(N2CC(F)(F)C2)c(OCC2CC2)n1)C1CC1` (stereo not drawn) [Example 80, 2-Cyclopropyl-2-{[6-cyclopropylmethoxy-5-(3,3-difluoro-azetidin-1-yl)-pyrazine-2-carbonyl]-amino}-propionic acid methyl ester], for which the half-maximal effective concentration (EC50) was more than 10000 nM in assay [1] and 0.7 nM in assay [2].

`CC(C)(CCc1ccccc1)NC(=O)c1cnc(N2CC(F)(F)C2)c(OCC2CC2)n1` [Example 102, 6-Cyclopropylmethoxy-5-(3,3-difluoro-azetidin-1-yl)-pyrazine-2-carboxylic acid (1,1-dimethyl-3-phenyl-propyl)-amide]: the EC50 in assay [1] is more than 10000 nM; in assay [2] it was 2.5 nM.

Consider `CN(C)C(=O)[C@H](CC1CC1)NC(=O)c1cnc(C2CC2)c(OCC2CC2)n1` [Example 25, 5-Cyclopropyl-6-cyclopropylmethoxy-pyrazine-2-carboxylic acid ((S)-2-cyclopropyl-1-dimethylcarbamoyl-ethyl)-amide], for which the EC50 in assay [1] is more than 10000 nM; in assay [2] it was 14.6 nM.

Regarding `Cc1csc(C(C)(C)NC(=O)c2cnc(C3CC3)c(OCC3CC3)n2)n1` [Example 54, 5-Cyclopropyl-6-cyclopropylmethoxy-pyrazine-2-carboxylic acid [1-methyl-1-(4-methyl-thiazol-2-yl)-ethyl]-amide], the 50% effective concentration (EC50) in assay [1] is more than 10000 nM; in assay [2] it was 188 nM.

For the compound `O=C(N[C@@H](c1ccccn1)C(F)(F)F)c1cnc(C2CC2)c(OCC2CC2)n1` [Example 49, 5-Cyclopropyl-6-cyclopropylmethoxy-pyrazine-2-carboxylic acid ((S)-2,2,2-trifluoro-1-pyridin-2-yl-ethyl)-amide], the EC50 in assay [1] is more than 10000 nM; in assay [2], 107 nM.

As for `CN(C)C(=O)C(CC1CCC1)NC(=O)c1cnc(N2CC(F)(F)C2)c(OCC2CC2)n1` (stereo not drawn) [Example 97, 6-Cyclopropylmethoxy-5-(3,3-difluoro-azetidin-1-yl)-pyrazine-2-carboxylic acid (2-cyclobutyl-1-dimethylcarbamoyl-ethyl)-amide], the EC50 in assay [1] was more than 10000 nM; in assay [2], 20.4 nM.

As for `O=C(N[C@H](c1ccccn1)C(F)(F)F)c1cnc(N2CC(F)(F)C2)c(OCC2CC2)n1` [Example 47, 6-Cyclopropylmethoxy-5-(3,3-difluoro-azetidin-1-yl)-pyrazine-2-carboxylic acid ((R)-2,2,2-trifluoro-1-pyridin-2-yl-ethyl)-amide], the EC50 in assay [1] is more than 10000 nM; in assay [2], 72.9 nM.

With `COC(=O)[C@@H](NC(=O)c1cnc(C2CC2)c(OCC2CC2)n1)C(C)(C)C` [Example 23, (S)-2-[(5-Cyclopropyl-6-cyclopropylmethoxy-pyrazine-2-carbonyl)-amino]-3,3-dimethyl-butyric acid methyl ester], the EC50 worked out at 157 nM in assay [1] and 1.7 nM in assay [2].

In the case of `CC(C)(CCO)NC(=O)c1cnc(C2CC2)c(OCC2CC2)n1` [Example 10, 5-Cyclopropyl-6-cyclopropylmethoxy-pyrazine-2-carboxylic acid (3-hydroxy-1,1-dimethyl-propyl)-amide], the EC50 is more than 10000 nM in assay [1] and 257 nM in assay [2].

On to `Cc1nc(C(C)(C)NC(=O)c2cnc(N3CCC3)c(-c3cccc(Cl)c3)n2)no1` [Example 5, 5-Azetidin-1-yl-6-(3-chloro-phenyl)-pyrazine-2-carboxylic acid [1-methyl-1-(5-methyl-[1,2,4]oxadiazol-3-yl)-ethyl]-amide], for which the values for the concentration for a half-maximal effect (EC50) in assay [1] and in assay [2] were more than 10000 nM and 140 nM, respectively.

As to `Cc1nc(C(C)(CC2CC2)NC(=O)c2cnc(N3CC(F)(F)C3)c(OCC3CC3)n2)no1` (stereo not drawn) [Example 60, 6-Cyclopropylmethoxy-5-(3,3-difluoro-azetidin-1-yl)-pyrazine-2-carboxylic acid [2-cyclopropyl-1-methyl-1-(5-methyl-[1,2,4]oxadiazol-3-yl)-ethyl]-amide], the results for the EC50 in assay [1] and in assay [2] were more than 10000 nM and 14.6 nM, respectively.

`CN(C)C(=O)[C@H](CC1CC1)NC(=O)c1cnc(N2CC(F)(F)C2)c(OCC2CC2)n1` [Example 32, 6-Cyclopropylmethoxy-5-(3,3-difluoro-azetidin-1-yl)-pyrazine-2-carboxylic acid ((S)-2-cyclopropyl-1-dimethylcarbamoyl-ethyl)-amide]: the EC50 in assay [1] is more than 10000 nM; in assay [2] it was 59.6 nM.

`CC(C)C[C@H](NC(=O)c1cnc(C2CC2)c(OCC2CC2)n1)C(=O)N(C)C` [Example 27, 5-Cyclopropyl-6-cyclopropylmethoxy-pyrazine-2-carboxylic acid ((S)-1-dimethylcarbamoyl-3-methyl-butyl)-amide]: the EC50 in assay [1] was more than 10000 nM; in assay [2] it was 2.7 nM.

With `O=C(NC(CO)C1CC1)c1cnc(N2CC(F)(F)C2)c(OCC2CC2)n1` (stereo not drawn) [Example 21, 6-Cyclopropylmethoxy-5-(3,3-difluoro-azetidin-1-yl)-pyrazine-2-carboxylic acid (1-cyclopropyl-2-hydroxy-ethyl)-amide], the figures for the half-maximal effective concentration (EC50) in assay [1] and in assay [2] were more than 10000 nM and 61.3 nM, respectively.

On to `O=C(NN1CCCCC1)c1cnc(C2CC2)c(-c2cccc(Cl)c2)n1` [Example 7, 6-(3-Chloro-phenyl)-5-cyclopropyl-pyrazine-2-carboxylic acid piperidin-1-ylamide], for which the EC50 was more than 10000 nM in assay [1] and 255 nM in assay [2].

On to `CNC(=O)[C@H](CC(C)C)NC(=O)c1cnc(C2CC2)c(OCC2CC2)n1` [Example 26, 5-Cyclopropyl-6-cyclopropylmethoxy-pyrazine-2-carboxylic acid ((S)-3-methyl-1-methylcarbamoyl-butyl)-amide], for which the EC50 was more than 10000 nM in assay [1] and 13.5 nM in assay [2].
